Experimental data from PubChem BioAssay AID1508591.

Details: rat; liver microsomes; pH 7.4; 15.0 min; 1.0 µM

`O=C(NCCc1ccccn1)C1CC(=O)N(c2n[nH]c3cc(Br)ccc23)C1` (stereo not given) showed a half-life of 29.7 min.
`CCOc1ccc(N2C(=O)c3n[nH]c(-c4cccs4)c3C2c2cccc(F)c2)cc1` (stereo not given) showed a half-life of 14.2 min.
In the case of `CN1Cc2c(ccc3c2OCO3)[C@@H]2[C@H]1c1cc3c(cc1C[C@@H]2O)OCO3`, the half-life is reported as 2.12 min.
`Fc1cc(Nc2nc(-c3ccncc3)nc3ccccc23)ccc1-c1ccncc1` gave a half-life of 13 min.
In the case of `c1ccc2c(Nc3ccon3)nc(-c3ccncc3)nc2c1`, the half-life is reported as 6.2 min.
`Cc1ccc(S(=O)(=O)Nc2cccnc2C(=O)Nc2nc(-c3ccccc3)cs2)cc1` gave a half-life of 4.2 min.
`Cc1ccc(S(=O)(=O)Nc2ccccc2C(=O)Nc2nc(-c3ccc(Cl)cc3)cs2)cc1` showed a half-life of 8.85 min.
Molecule `Cc1ccc(S(=O)(=O)Nc2ccc(C(=O)Nc3ncc(-c4ccccc4)s3)cc2)cc1` has a half-life of 11 min.
Molecule `Clc1ccc(-c2nnc(C3CCCCC3)o2)cc1` has a half-life of 2.9 min.
With `O=C(c1cnn(-c2cccc(F)c2)c1-n1cccc1)N1CCN(c2ccccc2F)CC1` the half-life was 1.93 min.
Molecule `CC(C)CCNC(=O)[C@H](CC(C)C)NC(=O)[C@H]1O[C@@H]1C(=O)O` has a half-life greater than 30 min.
With `CC1CCC(n2c3cnccc3c3cnc(Nc4ccc5c(n4)CCN(C(=O)CO)C5)nc32)CC1` (stereo not given) the half-life was 23.5 min.
`COC[C@@H]1CN(C(=O)c2n[nH]c3ccccc23)C[C@H]1c1nc(C)no1` gave a half-life greater than 30 min.
For `Cc1onc(-c2ccc(F)cc2)c1COc1ccc(C(=O)N2CCS(=O)(=O)CC2)cn1`, the half-life was 9.64 min.
Molecule `O=S(=O)(Nc1nccs1)c1ccc(NCc2ccccc2)cc1` has a half-life of 10 min.
Work on `COc1cccc(CNc2ccc(S(=O)(=O)Nc3ccc(N4CCNCC4)cc3)cc2)c1O` yielded a half-life greater than 30 min.
In the case of `Cc1ccc(S(=O)(=O)Nc2cnccc2C(=O)Nc2nc(-c3ccccc3)cs2)cc1`, the half-life is reported as 14.3 min.
For `CC(=O)c1c(C)[nH]c(C(=O)Nc2cccc([S+](=O)([O-])Nc3cccnc3)c2)c1C`, the half-life was 17 min.
Molecule `NC(=O)C1CCN(c2nc(-c3ccc(F)cc3)cs2)CC1` has a half-life of 7.09 min.
In the case of `Cn1c(=O)c2c(nc(Cl)n2Cc2ccc(Cl)cc2)n(C)c1=O`, the half-life is reported as greater than 30 min.
Work on `Cc1ccccc1C(=O)N1CCc2cc(-c3nc(NC(=O)c4ccc5c(c4)OCO5)sc3C)ccc21` yielded a half-life greater than 30 min.
For `O=C(O)Cc1ccc2oc(-c3ccc(NC(=O)/C=C/c4ccc(Br)cc4)c(F)c3)nc2c1`, the half-life was greater than 30 min.
`O=C(CCS(=O)(=O)c1nc(-c2cccs2)cc(C(F)(F)F)n1)Nc1ccc(OC(F)(F)F)cc1` gave a half-life of 2.45 min.
For `Cc1cc(C)c(C(=O)Nc2cccc([S+](=O)([O-])Nc3ccc(Br)cc3)c2)[nH]1`, the half-life was 7.7 min.
Work on `CC(C)NC(=O)C1CCN(C(=O)c2cc3sccc3n2Cc2ccc(Cl)cc2)CC1` yielded a half-life of 1.05 min.
Molecule `Cc1ccc(-c2cc(C(=O)Nc3ccc(-n4cncn4)cc3)c3ccccc3n2)cc1C` has a half-life of 23 min.
In the case of `CN(C)c1ccc(CN2CCNc3cc(Nc4ccccc4)ncc3C2)cc1`, the half-life is reported as 2.01 min.
Molecule `CCN(CC)CCCCNc1ncc2cc(-c3c(Cl)cccc3Cl)c(NC(=O)NC(C)(C)C)nc2n1` has a half-life greater than 30 min.
`O=C(COc1ccccc1)NCC(c1cccs1)S(=O)(=O)c1ccc(Cl)cc1` (stereo not given) gave a half-life of 1.44 min.
For `Cc1ccc(S(=O)(=O)NCCC(=O)Nc2nc(-c3ccccc3)cs2)cc1`, the half-life was 2.4 min.
In the case of `COc1cnccc1-c1nc(Nc2ccc(F)c(F)c2)c2ccccc2n1`, the half-life is reported as greater than 30 min.
For `C[S+](=O)([O-])c1ccc(-c2nc(C(=O)NCc3cccnc3)n3ccccc23)cc1`, the half-life was greater than 30 min.
`COc1ccccc1C(=O)N1CCc2cc(-c3nc(NC(=O)Cc4ccc5c(c4)OCO5)sc3C)ccc21` showed a half-life of 9.6 min.
With `O=C1CCCc2cc(S(=O)(=O)Nc3cnccc3C(=O)Nc3nc(-c4ccccc4)cs3)ccc2N1` the half-life was greater than 30 min.
In the case of `CC(=O)Nc1ccc(S(=O)(=O)Nc2nccs2)cc1`, the half-life is reported as greater than 30 min.
For `COc1cc([C@@H]2c3cc4c(cc3[C@H](O)[C@H]3COC(=O)[C@H]23)OCO4)cc(OC)c1OC`, the half-life was greater than 30 min.
In the case of `CC(=O)c1c(C)c(C(=O)Nc2cccc([S+](=O)([O-])N3CCCCCC3)c2)n(C)c1C`, the half-life is reported as 1.4 min.
In the case of `O=C(c1cc2ccccc2[nH]1)N1CCc2c(n(Cc3cccnc3)n(CCc3ccccc3)c2=O)C1`, the half-life is reported as 1.55 min.
With `COc1c(Cl)cc2c([nH]c3cnccc32)c1NC(=O)c1cccnc1C` the half-life was greater than 30 min.
Work on `CN(C)C(=O)c1cccc(-c2csc(N3CCC(C(N)=O)CC3)n2)c1` yielded a half-life greater than 30 min.
`NC(=O)C1CCN(c2ncnc(-c3ccc4c(c3)OCCCO4)n2)CC1` showed a half-life of 17.3 min.
In the case of `C[C@@H](O)CNC(C)(C)CC(=O)N[C@@H]1CCc2ccccc2N(Cc2ccc(-c3ccccc3-c3nn[nH]n3)cc2)C1=O`, the half-life is reported as greater than 30 min.
With `N#Cc1ccc(-c2csc(N3CCC(C(N)=O)CC3)n2)cc1` the half-life was 16.2 min.
Molecule `COc1cccc(CNc2ccc(S(=O)(=O)Nc3cccs3)cc2)c1O` has a half-life of 1.6 min.
Molecule `COC(=O)CNC(=O)c1nc(-c2ccc(Cl)nc2)c2ccccn12` has a half-life of 4.72 min.
In the case of `Cn1c(=O)c2[nH]c(=O)[nH]c2n(C)c1=O`, the half-life is reported as greater than 30 min.
Molecule `COc1ccc(C(=O)Nc2ccc3c(c2)N(C2CCCC2)C(=O)c2ccccc2S3)cc1OC` has a half-life of 1.7 min.
Molecule `C[C@@H]1CN(CC(=O)N2CC(C)(C)c3ncc(Cc4ccc(F)cc4)cc32)[C@@H](CN2CCOC[C@H]2C)CN1` has a half-life of 7.57 min.
With `Nc1ncnc2c1ncn2[C@H]1O[C@@H](CO)[C@@H](O)[C@H]1N` the half-life was greater than 30 min.
`O=C(Nc1nc(-c2ccccc2)cs1)c1ccncc1NS(=O)(=O)c1ccccc1F` showed a half-life of 7 min.
`COc1cccc(CNc2ccc(S(=O)(=O)Nc3cccc(N4CCNCC4)c3)cc2)c1O` showed a half-life greater than 30 min.
In the case of `c1ccc2c(NC3CCCCC3)nc(-c3ccncc3)nc2c1`, the half-life is reported as 10 min.
`Oc1ccccc1NCC(O)Cn1ccc2ccccc21` (stereo not given) gave a half-life of 2.37 min.
`COc1cccc(-c2nc(-c3c(C)noc3C)cc3[nH]c(C)cc23)c1OC` showed a half-life of 10.2 min.
For `O=C1CN(C(=O)CCC(=O)N2CCc3c(nc4cc(-c5ccccc5)[nH]n4c3=O)C2)c2ccccc2N1`, the half-life was greater than 30 min.
In the case of `Cc1nn(CCc2nc(-c3ccc(OC(F)F)cc3)cs2)c2[nH]c(=O)cc(C(F)(F)F)c12`, the half-life is reported as 6.9 min.
With `CC(C)(C)c1ccc(C(=O)Nc2ccc3c(c2)CCCN3C(=O)c2cccs2)cc1` the half-life was 2.33 min.
Molecule `O=[N+]([O-])c1cccc(CNc2ccc(S(=O)(=O)Nc3nccs3)cc2)c1O` has a half-life greater than 30 min.
`COc1cc(-c2cc3c(nc2-c2ccccc2)nc(C(=O)NC2CCN(C)CC2)n3C)ccn1` showed a half-life greater than 30 min.
Work on `Cc1ccc([S+](=O)([O-])n2cc(-c3ccc(-c4ccccc4)cc3)c3ccccc32)cc1` yielded a half-life greater than 30 min.
For `Cc1ccccc1C(=O)N1CCc2cc(N3CCC(NC(=O)Cc4ccccc4)C3)ccc21` (stereo not given), the half-life was 11 min.
For `Cc1ccc(-c2cc(C(=O)NCc3ccc(S(N)(=O)=O)cc3)c3ccccc3n2)cc1C`, the half-life was 17 min.
`Cc1cnc(-c2ccccc2C2CC2)nc1NCc1ccc(-c2cccnc2)cc1` showed a half-life of 6.2 min.
Molecule `COc1ccc(-n2nc(C3CCN(C(=O)c4ccccc4)CC3)[nH]c2=O)cc1` has a half-life greater than 30 min.
For `CCOC(=O)c1ccc(-c2ccc3ncnc(NCCc4cnc[nH]4)c3c2)o1`, the half-life was greater than 30 min.
`CNc1oc(-c2cccc(-c3ccccc3)c2)nc1C#N` gave a half-life of 12 min.
With `Nc1c(C(=O)Nc2ccc(Cl)cc2)sc2nc3c(cc12)N1CCC3CC1` the half-life was 24 min.
For `CN(C)c1cccc(-c2c3c(=O)n(-c4ccccc4Cl)[nH]c3cc(=O)n2C)c1`, the half-life was greater than 30 min.
For `Cc1ccc(-c2nc(C)c(C(=O)Nc3ccc4c(c3)C(=O)N3CCC[C@H]3C(=O)N4)s2)cc1`, the half-life was 27.2 min.
`Cc1c(C(=O)NN2CCCCC2)nn(-c2ccc(Cl)cc2Cl)c1-c1ccc(Cl)cc1` showed a half-life of 5.9 min.
`Cc1[nH]c2ccccc2c1CN1CCN(c2ccccn2)CC1` gave a half-life of 1.7 min.
Molecule `COc1cccc(Nc2nc(-c3ccncc3)nc3ccccc23)c1` has a half-life of 4.3 min.
With `c1cc(-c2cc(-c3ccncc3)c3cncn3c2)c2cc[nH]c2c1` the half-life was 5.63 min.
Molecule `COc1ccc(NC(=O)c2c(C)c(C(C)=O)c(C)n2C)cc1S(=O)(=O)Nc1ccc(Br)cc1` has a half-life of 5.9 min.
For `O=C(c1cccs1)c1nonc1C(=O)c1cccs1`, the half-life was 1.49 min.
With `Cc1ccc(N2CCN(c3cnn(-c4nc5ccccc5s4)c(=O)c3Cl)CC2C)cc1` (stereo not given) the half-life was 10.5 min.
With `CC(=O)N1CCC(NC(=O)c2nc(-c3ccccc3)cc3[nH]ccc23)CC1` the half-life was greater than 30 min.
`Oc1ccc(CN2CC(CNc3ccccc3)C3(C2)CN(c2ccccc2)C3)cc1` (stereo not given) showed a half-life of 3.01 min.
Molecule `Cc1ccnc(NC(=S)N2CCN(c3ccc(C(F)(F)F)cc3[N+](=O)[O-])CC2)c1` has a half-life greater than 30 min.
`Cc1ccccc1C(=O)N1CCc2cc(-c3nc(NC(=O)Cc4ccc5c(c4)OCO5)sc3C)ccc21` gave a half-life of 15.5 min.
Molecule `O=C(c1ccc2c(c1)OCO2)N1CCC(Cc2nc(-c3cnccn3)no2)CC1` has a half-life greater than 30 min.
In the case of `O=C(c1nc(-c2ccc(Cl)nc2)c2ccccn12)N1CCCC1`, the half-life is reported as 8.91 min.
Work on `COc1cccc(CNc2ccc(S(=O)(=O)Nc3nc(C)c(C)s3)cc2)c1O` yielded a half-life of 12 min.
With `O=C(c1ccc2c(c1)ncn2-c1cccc(C(F)(F)F)c1)N1CCCCC1` the half-life was 4.4 min.
Molecule `CC[C@H]1CN2CCC3CC(OC)C(OC)CC3[C@@H]2C[C@@H]1C[C@H]1NCCC2=C1CC(OC)=C(O)C2` (stereo not given in full) has a half-life greater than 30 min.
For `CCCc1ccc(-c2csc(NC(=O)c3ccncc3NS(=O)(=O)c3ccc(C)cc3)n2)cc1`, the half-life was 3.3 min.
With `CN1CCCC(CC2c3ccccc3Sc3ccccc32)C1` (stereo not given) the half-life was 1.4 min.
`O=C(Nc1ncc(Cc2ccc(C(F)(F)F)cc2)s1)c1cnc(-c2ccccc2)[nH]1` showed a half-life greater than 30 min.
Work on `CCOc1ccc(CCNC(=O)c2cc3ccccc3n2C)cc1OCC` yielded a half-life of 1.38 min.
`O=C(Nc1nnc(-c2cccs2)o1)c1ccc(Cl)cc1` gave a half-life of 2.9 min.
Molecule `CS(=O)(=O)c1ccccc1-c1csc(N2CCC(C(N)=O)CC2)n1` has a half-life greater than 30 min.
Work on `COc1ccc(-n2c(C)c(C(C)=O)c3cc(OC(=O)COc4ccccc4)ccc32)cc1` yielded a half-life of 10.4 min.
`Fc1ccc(Nc2nc(-c3ccncc3)nc3ccccc23)cc1F` showed a half-life of 9.82 min.
In the case of `COc1cccc(CNc2ccc(S(=O)(=O)Nc3cccc4ccncc34)cc2)c1O`, the half-life is reported as 10 min.
`CC(C)CS(=O)(=O)c1oc(-c2ccc(F)cc2)nc1S(=O)(=O)c1ccccc1` gave a half-life of 1.18 min.
Molecule `Oc1ccc(CNc2ccccc2C(F)(F)F)c2cccnc12` has a half-life of 4.99 min.
With `Clc1ccc(C2=Nn3c(nnc3-c3ccncc3)SC2)cc1` the half-life was 9.1 min.
With `O=C(Nc1ccccc1C(=O)Nc1ccccc1C(=O)NCc1ccco1)c1ccco1` the half-life was 11 min.
Work on `N#Cc1ccccc1Nc1ncc(-c2cccc3ccccc23)o1` yielded a half-life of 5.8 min.
With `CC1(C)CCC(CN2CCN(c3ccc(C(=O)NS(=O)(=O)c4ccc(NCC5CCOCC5)c([N+](=O)[O-])c4)c(Oc4cnc5[nH]ccc5c4)c3)CC2)=C(c2ccc(Cl)cc2)C1` the half-life was greater than 30 min.
